The values that follow come from patent US20190284168A1, “PYRAZOLE DERIVATIES AS SGC STIMULATORS” (IRONWOOD PHARMACEUTICALS, INC., priority 2014, published 2019).

A value given as a limit tells only on which side of the number the result lay.

Series [1] has as its system lambs with acute pulmonary hypertension. The conditions noted are these: cited from earlier work; for effect on mean arterial pressure / pulmonary vasodilation / transpulmonary cGMP release / systemic arterial oxygenation: inhaled microparticles, awake lambs; for effect on mean arterial pressure / pulmonary vasodilation / transpulmonary cGMP release: U-46619 infusion.
In a further series the test system is obese mice. The conditions noted are these: cited from earlier work.
In another series the test system is NO-defficient rats. Particulars: NO-deficient rats; cited from earlier work.
Series [2] deals with T1, human recombinant soluble guanylate cyclase enzyme α1β1 (Homo sapiens, UniProt Q02108+Q02153).
T1 construct: purchased Enzo Life Sciences ALX-201-177
T1 sequence (Q02108 1-690): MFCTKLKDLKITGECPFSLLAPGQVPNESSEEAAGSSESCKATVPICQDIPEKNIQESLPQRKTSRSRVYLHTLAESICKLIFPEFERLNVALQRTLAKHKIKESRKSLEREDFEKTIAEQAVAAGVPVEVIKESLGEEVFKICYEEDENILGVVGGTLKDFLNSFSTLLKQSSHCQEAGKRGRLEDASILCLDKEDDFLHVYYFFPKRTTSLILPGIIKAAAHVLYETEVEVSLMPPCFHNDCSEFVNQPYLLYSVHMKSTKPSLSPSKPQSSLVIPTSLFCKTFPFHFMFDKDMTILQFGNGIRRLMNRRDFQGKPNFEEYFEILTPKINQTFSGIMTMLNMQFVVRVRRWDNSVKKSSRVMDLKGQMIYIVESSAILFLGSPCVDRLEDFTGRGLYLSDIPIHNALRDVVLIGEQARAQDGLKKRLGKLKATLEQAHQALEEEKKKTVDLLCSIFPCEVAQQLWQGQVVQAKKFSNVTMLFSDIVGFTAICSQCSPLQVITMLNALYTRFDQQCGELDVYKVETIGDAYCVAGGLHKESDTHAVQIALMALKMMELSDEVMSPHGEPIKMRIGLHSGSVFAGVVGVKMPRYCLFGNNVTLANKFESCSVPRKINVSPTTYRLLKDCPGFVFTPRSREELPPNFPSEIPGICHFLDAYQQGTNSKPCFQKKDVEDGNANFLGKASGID
T1 sequence (Q02153 1-619): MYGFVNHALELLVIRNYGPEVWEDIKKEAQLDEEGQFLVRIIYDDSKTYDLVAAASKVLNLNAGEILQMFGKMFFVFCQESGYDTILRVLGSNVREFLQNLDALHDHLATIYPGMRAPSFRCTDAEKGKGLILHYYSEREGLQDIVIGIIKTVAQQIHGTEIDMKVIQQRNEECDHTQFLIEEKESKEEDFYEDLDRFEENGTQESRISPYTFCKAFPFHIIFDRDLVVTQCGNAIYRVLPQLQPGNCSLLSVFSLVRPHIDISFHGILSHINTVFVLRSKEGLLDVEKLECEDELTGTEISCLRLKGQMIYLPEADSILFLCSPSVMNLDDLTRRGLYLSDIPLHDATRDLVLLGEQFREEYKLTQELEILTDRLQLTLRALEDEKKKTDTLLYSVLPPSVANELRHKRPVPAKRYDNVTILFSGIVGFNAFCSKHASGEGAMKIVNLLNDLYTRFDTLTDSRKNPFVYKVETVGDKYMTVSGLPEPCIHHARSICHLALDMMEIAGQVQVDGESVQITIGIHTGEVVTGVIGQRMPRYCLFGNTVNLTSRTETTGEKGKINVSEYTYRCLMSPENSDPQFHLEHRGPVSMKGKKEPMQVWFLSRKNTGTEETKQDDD
Briefly: Purified human recombinant sGC α1β1 enzyme assay in the presence of DETA-NONOate (cGMP HTRF). Particulars: 30 uM DETA NONOate; 50% of maximal response of 30 uM Compound Y; read-out: sGC_Enz_HTRF_a1b1 EC50/IC50 Abs (Norm) (nM) Binned. Format: biochemical. The procedure: Purified human recombinant soluble guanylate cyclase enzyme α1β1 (h sGC) obtained from Enzo Life Sciences (P/N: ALX-201-177) was used to evaluate the activity of test compounds. The assay reactions contained 0.1 M Tris (pH 8.0), 0.5 mg/mL BSA, 2 mM DTT, 4 mM MgCl2, 30 uM DETA NONOate (Enzo Life Science P/N: ALX-430-014), and 12.5 ng/ml human soluble guanylate cyclase enzyme. […] Guanosine 5'-triphosphate (Sigma-Aldrich P/N: […]) was added to a final concentration of 300 μM and enzyme reactions were incubated (100 μL, 384-well plate format) at 37° C. for 20 minutes. The controls contained 3% DMSO (low control), or 30 uM of Compound Y (high control). After the 20 minute incubation, the reaction was stopped with the addition of 100 μL of ice cold 20% acetic acid. cGMP concentrations in all samples were determined using the cGMP HTRF (Cisbio P/N: 62GM2PEC) assay per manufacturer's instructions. A cGMP standard curve was fit using a 4-parameter fit (log(inhibitor) vs. response-variable slope) using GraphPad Prism Software v.6. Samples were diluted appropriately to ensure that values fell within the linear range of the standard curve. Data were fit using a 4-parameter fit (log(agonist) vs. response-variable slope) using GraphPad Prism Software v.6. The EC50 was interpolated from the curve fit and is defined as the concentration at which the compound elicits 50% of the maximal response of the 30 uM of Compound Y, the high control compound.
(Time-resolved FRET reads energy transfer from a long-lived donor to a nearby acceptor.)

Series [3] deals with T2, soluble guanylate cyclase (sGC) (Homo sapiens, UniProt Q02108+Q02153).
T2 construct: endogenously expressing soluble guanylate cyclase (sGC); endogenous in cells; host or cells: HEK293
T2 sequence (Q02153 1-619): T1 sequence (Q02153 1-619)
T2 sequence (Q02108 1-690): T1 sequence (Q02108 1-690)
Briefly: sGC-HEK-cGMP assay with LC/MS detection. The conditions noted are these: HEK293 whole cells, LC/MS detection of cGMP, 10 μM DETA-NONOate; 50% of high control response (30 μM Compound Y); read-out: Absolute EC50 (nM)- binned (~). In kind it is cell-based.

For series [4], the system named is Guinea pig tracheal smooth muscle. Nature of the series: Electrical field stimulated guinea pig tracheal smooth muscle contraction. Particulars: guinea pig tracheal strips, sub-maximal EFS; 95% CI 0.78-0.94; read-out: IC50, inhibition of EFS-induced tracheal smooth muscle contraction. An excerpt: It is possible to assess the bronchodilating effects of sGC stimulators by using the system described below. This system allows us to determine potency, efficacy and duration of action of several sGC stimulators, as well as to assess potential side effects such as blood pressure, or heart rate changes.
Animals: Guinea pig, Dunkin Hartley, male, Full barrier-bred and certified free of specific micro-organisms on receipt 525-609 g on the experimental day, Harlan UK Ltd. Guinea pigs are housed in a group of 4 in solid-bottomed cages with Gold Flake bedding in a controlled environment (airflow, temperature and humidity). Food (FD1, Special Diet Services) and water are provided ad libitum.
On each experimental day, a guinea pig is killed by exposure to a rising concentration of CO2 and the trachea removed. […] Tissues are washed with Kreb's buffer and stimulated using the previously determined sub-maximal voltage for 1 hour to establish a stable baseline contraction prior to assessment of compound activity.
A cumulative dose response curve (DRC) to each test substance is then performed and changes in smooth muscle contraction measured. The effect of each test substance in each experiment is expressed as a percentage inhibition of the baseline contraction, normalized to the relevant vehicle controls. […]

Another series deals with sickle mice. The conditions noted are these: oral, high doses; cited from earlier work.
A further series deals with mdx mouse. Particulars: cited from earlier work.
Series [5] concerns sickle cell disease patients with severe PHT. Particulars: cited from earlier work.
Series [6] concerns adult sickle cell disease patients. Particulars: infusions; cited from earlier work.
The subject of series [7] is adult patients with sickle cell disease. The conditions noted are these: acute VOE, vs placebo; cited from earlier work.

Regarding `Nc1nc(-c2nn(Cc3ccccc3F)c3ncccc23)ncc1C1CC1` [BAY 41-2272], in series [1], the “effect on mean arterial pressure” value was “without significant effect”, the pulmonary vasodilation entry was “dose dependent pulmonary vasodilation” and the “transpulmonary cGMP release” value is reported as “increased”.

In the case of `Nc1nc(-c2nn(Cc3ccccc3F)c3ncccc23)nc(N)c1N1CCOCC1` [BAY 41-8543], the “magnitude and duration of pulmonary vasodilation induced by iNO” value in series [1] (after inhaling microparticles, combined with iNO) is recorded as “augmented”. In [1], the “effect on mean arterial pressure” value is “without significant effect”, the pulmonary vasodilation result is “dose dependent pulmonary vasodilation”, the “transpulmonary cGMP release” value is “increased” and the systemic arterial oxygenation entry was “increased”.

Consider `O=C(O)CCCCN(CCc1ccccc1OCc1ccc(CCc2ccccc2)cc1)Cc1ccc(C(=O)O)cc1` [BAY 58-2667], for which, in series [1] (inhaled microparticles after ODQ), the “pulmonary vasodilation and transpulmonary cGMP release after treatment with ODQ” value is “greatly enhanced”. Moreover, in series [1], the “effect on mean arterial pressure” value is listed as “without significant effect”, the pulmonary vasodilation entry was “dose dependent pulmonary vasodilation”, the “transpulmonary cGMP release” value is “increased” and the systemic arterial oxygenation entry was “increased”.

With `O=C(O)CCCCN(CCc1cc(F)ccc1OCc1ccc(-c2ccc(C(F)(F)F)cc2)cc1)Cc1ccc(C(=O)O)cc1` [BAY 60-2770], in the series on obese mice, the overactive bladder entry is “ameliorates overactive bladder”.

`Nc1nc(-c2nn(Cc3ccccc3F)c3ncccc23)ncc1C1CC1` [BAY-2272]: the bladder dysfunction result in the series with NO-defficient rats is listed as “protective effects”.

For `CC(=O)c1cc(-c2ncc(F)c(N3CCS(=O)(=O)CC3)n2)nn1Cc1ccccc1F` [Compound 78], the EC50 was not above 1000 nM in series [2] and more than 1000 nM in [3].

For the compound `CC(=O)c1cc(-c2ncc(F)c(O)n2)nn1Cc1cccc(F)c1F` [Compound 83], the EC50 in [2] was not above 1000 nM; in series [3], more than 1000 nM.

Turning to `CC(=O)c1cc(-c2ncc(F)c(NCC(=O)O)n2)nn1Cc1ccccc1F` [Compound 86], the EC50 in [2] was not above 1000 nM; in series [3] it was more than 1000 nM.

As to `C[C@](N)(CNc1nc(-c2cc(-c3ccon3)n(Cc3ccccc3F)n2)ncc1F)C(F)(F)F` [Compound 108], the EC50 in [2] and in series [3] was 100 to 1000 nM throughout.

As usually defined, the IC50 is the concentration needed to halve the response being measured. On to `CC(C)[N+]1(C)[C@@H]2CC[C@H]1CC(OC(=O)C(CO)c1ccccc1)C2` (stereo partly shown) [Ipratropium bromide, ipratropium bromide], for which, in [4], the IC50 came to 0.86 nM.

As for `N=C(N)NCCC[C@H](N)C(=O)O` [L-arginine, arginine], in the series with sickle mice, the “Gardos channel activity, dense cell formation and hemolysis” value is “decrease Gardos channel activity, dense cell formation and hemolysis”.

As for `O=c1onc2cnc3ccccc3n12` [ODQ, 1H-[1,2,4]oxadiazolo[4,3-a]quinoxalin-1-one], the “pulmonary vasodilator effect of iNO” value in series [1] (intravenous administration) is recorded as “markedly reduced”.

`CCCc1nn(C)c2c(=O)[nH]c(-c3cc(S(=O)(=O)N4CCN(C)CC4)ccc3OCC)nc12` [sildenafil, Sildenafil]: the “muscle ischemia, injury and fatigue after a brief bout of exercise” value with mdx mouse was “alleviate muscle ischemia, as well as injury and fatigue”. Further, in series [5] (Walk-PHaSST multicenter trial, stopped prematurely), the “serious side effects (VOE, headache, visual disturbance)” value is “higher frequency of serious side effects”. Also, the “PAP and exercise capacity” value in series [5] (sickle cell disease patients with severe PHT) was “improvements in PAP and exercise capacity”.

Turning to `O=NO` [sodium nitrite], in series [6], the forearm blood flow entry is reported as “enhanced forearm blood flow”.

For the compound nitric oxide [inhaled NO], in series [7], the pain scores entry is “significantly reduced pain scores”.
